Reference: patent publication US8507411B2, “Neoglycorandomization and digitoxin analogs” (priority 2004, dated 2013)

Key:
[1] = Hydrolytic stability of the neoglycosidic linkage; format: physicochemical; conditions: neutral or basic conditions (pH 7, pH 9), 3 mM in 1:1 DMSO/buffer, one month
Procedure: FIG. 4 is a graphic representation of the results of studies on the hydrolytic stability of neoglycoside 4α. The chemical stability of the neoglycosidic linkage was examined by monitoring the hydrolytic degradation of neoglycoside 4α in a 3 mM solution of 1:1 DMSO/buffer. Three buffers were used, 50 mM acetate buffer (pH 5), 50 mM phosphate buffer (pH 7), and 50 mM Tris buffer (pH 9). Neoglycoside degradation was monitored by reverse phase HPLC on an Agilent Zorbax Eclipse XDB-C8 column (4.6×150 mm) with a flow rate of 0.8 mL min^−1 and a linear gradient of 49% CH3OH/H2O to 89% CH3OH/H2O over 20 min. At t=0, neoglycoside 4α in 500 μL DMSO was added to 500 μL buffer, and the resulting solution was vortexed for 40 sec, then immediately injected onto the HPLC. Peak areas at 220 nm were used to estimate the neoglycoside/aglycon ratio, which is reported as “percent neoglycoside remaining” [Aneoglycoside/(Aneoglycoside+Aaglycon)] for each of the three buffer systems.
Hydrolytic Stability of 4α. The chemical stability of the neoglycosidic linkage was examined by monitoring the hydrolytic degradation of neoglycoside 4α in a 3 mM solution of 1:1 DMSO/buffer. Three buffers were used, 50 mM acetate buffer (pH 5), 50 mM phosphate buffer (pH 7), and 50 mM Tris buffer (pH 9). Neoglycoside degradation was monitored by reverse phase HPLC on an Agilent Zorbax Eclipse XDB-C8 column (4.6×150 mm) with a flow rate of 0.8 mL min^−1 and a linear gradient of 49% CH3OH/H2O to 89% CH3OH/H2O over 20 min. At t=0, neoglycoside 4α in 500 μL DMSO was added to 500 μL buffer, and the resulting solution was vortexed for 40 sec, then immediately injected onto the HPLC. Peak areas at 220 nm were used to estimate the neoglycoside/aglycon ratio, which is reported as “percent neoglycoside remaining” [Aneoglycoside/(Aneoglycoside+Aaglycon)] for each of the three buffer systems (see FIG. 4).
The chemical stability of the neoglycosidic linkage was examined by monitoring the hydrolytic degradation of neoglycoside 4α in a 3 mM solution of 1:1 DMSO/buffer using buffers at three different pHs.

NCI-H460 = assay: Cell titer-glo cytotoxicity assay, NCI-H460; format: cell-based, human
From the text: FIG. 7 is a graphical summary of the results of the IC50 data from cytotoxicity assays. […] In the assay, live cells are quantified by measuring the luminescent signal resulting from the reaction between cellular ATP and luciferin to form oxyluciferin. The IC50 value for each compound represents at least four replicates of dose-response experiments conducted over six concentrations at two-fold dilutions.
The anticancer activities of ten panel analogues (3a-c,e,f and 4a-c,e,f) and digitoxin (1) were assessed using a high-throughput cytotoxicity assay on four human cancer cell lines, (FIG. 7) representing lung, colorectal, and ovarian carcinomas, as well as NCI/ADR-RES, a drug-resistant ovarian carcinoma line (For years, NCI/ADR-RES cells have been misidentified as drug-resistant MCF-7 breast adenocarcinoma cells, but recently this line has been shown definitively to be a drug-resistant line derived from OVCAR-8 ovarian adenocarcinoma cells. Liscovitch, M. et al., Cancer Lett. (2007) 245, 350-352.
All cell lines were maintained as previously reported (Langenhan, J. M. et al., Proc. Natl. Acad. Sci. (2005) 102, 12305-12310.) Cells were harvested by trypsinization using 0.25% trypsin and 0.1% EDTA and then counted in a Cellometer Auto T4 cell counter (Nexcelom, inc), before dilution for assay plating. […] Each plate was read for luminescence. […]

With CON([C@H]1CC[C@@]2(C)[C@H](CC[C@@H]3[C@@H]2CC[C@]2(C)[C@@H](C4=CC(=O)OC4)CC[C@]32O)C1)[C@@H]1O[C@H](CO)[C@@H](O)[C@H](O)[C@@H]1O [27β, D-mannoside] as the molecule, how does the hydrolytic stability [1] read?
Its hydrolytic stability is “no hydrolytic degradation”.

For CON([C@H]1CC[C@@]2(C)[C@H](CC[C@@H]3[C@@H]2CC[C@]2(C)[C@@H](C4=CC(=O)OC4)CC[C@]32O)C1)[C@H]1OC[C@H](O)[C@@H](O)[C@@H]1O [23β, L-xyloside], which IC50 (NCI-H460) is on record?
Its IC50 is 0.055 µM.
